“Also recorded” adds a separate entry of the source.
How the values were obtained:
[1] = test system: patients with primary insomnia; assay: REM sleep EEG spectral power after 4-week treatment, 3-arm parallel group study versus placebo; type: in vivo, human; conditions: for REM EEG spectral power, Alpha power ([8; 13] Hz) / REM EEG spectral power, Beta1 power ([15.5; 20.5] Hz) / REM EEG spectral power, Beta2 power ([20.5; 25.5] Hz) / REM EEG spectral power, Beta3 power ([25.5; 32] Hz) / REM EEG spectral power, Beta power ([15.5; 32] Hz) / REM EEG spectral power, Delta power ([0.5; 4] Hz) / REM EEG spectral power, Sigma power ([11.5; 15.5] Hz) / REM EEG spectral power, Theta power ([4; 8] Hz) / REM EEG spectral power, Total EEG power ([0.5; 32] Hz): 4 wks, whole night sleep
Description: (§1) REM sleep EEG power was calculated to evaluate the effects of chronic (4-week) administration of 20 mg and 50 mg piromelatine compared to those of placebo in patients with primary insomnia. Sleep EEG was recorded in 9 different centers in the frame of a 3-arm parallel group study with a random allocation of patients to one of the three treatment group (i.e., of the 121 patients who had exploitable sleep EEG data, 42 received placebo, 39 received piromelatine 20 mg, and 40 received piromelatine 50 mg).
(§2) Spectral power was calculated for all-night) and REM sleep for the total EEG spectrum [0.5; 32] Hz and in the following frequency bands: delta [0.5; 4] Hz, theta [4; 8] Hz, alpha [8; 13] Hz, sigma [11.5; 15.5] Hz, beta [15.5; 32] Hz, beta1 [15.5; 20.5] Hz, beta2 [20.5; 25.5] Hz, and beta3 [25.5; 32] Hz.
Note, REM sleep is longest during the third part of the night.

[2] = test system: patients with primary insomnia; assay: NREM sleep EEG spectral power after 4-week treatment, 3-arm parallel group study versus placebo; type: in vivo, human; conditions: 4-wks treatment, 20 and 50 mg; compared to baseline and to placebo
Description: as §1, with “NREM” for “REM”
as §2, with “NREM” for “REM”

With `COc1ccc2[nH]cc(CCNC(=O)c3cc(=O)cco3)c2c1` [Piromelatine, N-(2-(5-methoxy-1H-indol-3-yl)ethyl)-4-oxo-4H-pyran-2-carboxamide] the “effect on REM sleep alpha power band (in words)” value ([1]; 4-wks treatment, 20 and 50 mg, compared to baseline and to placebo, in particular during the longest REM period in the third part of the night sleep) was “increases the spectral power in the a band during REM sleep; also recorded: enhances the REM sleep alpha power band”, the “effect on other frequencies during REM sleep (in words)” value ([1]; patients with insomnia aged 20-80 years) was “minor or no changes in other frequencies” and the “REM EEG spectral power, Alpha power ([8; 13] Hz)” value ([1]; piromelatine 20 mg, n = 39) was 103.36 % of baseline values. The “REM EEG spectral power, Beta1 power ([15.5; 20.5] Hz)” value ([1]; piromelatine 20 mg, n = 39) was 100.36 % of baseline values, the “REM EEG spectral power, Beta2 power ([20.5; 25.5] Hz)” value ([1]; piromelatine 20 mg, n = 39) was 98.51 % of baseline values and the “REM EEG spectral power, Beta3 power ([25.5; 32] Hz)” value ([1]; piromelatine 20 mg, n = 39) was 97.56 % of baseline values. The “REM EEG spectral power, Beta power ([15.5; 32] Hz)” value ([1]; piromelatine 20 mg, n = 39) was 98.95 % of baseline values, the “REM EEG spectral power, Delta power ([0.5; 4] Hz)” value ([1]; piromelatine 20 mg, n = 39) was 100.29 % of baseline values and the “REM EEG spectral power, Sigma power ([11.5; 15.5] Hz)” value ([1]; piromelatine 20 mg, n = 39) was 100.34 % of baseline values. The “REM EEG spectral power, Theta power ([4; 8] Hz)” value ([1]; piromelatine 20 mg, n = 39) was 101.45 % of baseline values, the “REM EEG spectral power, Total EEG power ([0.5; 32] Hz)” value ([1]; piromelatine 20 mg, n = 39) was 99.76 % of baseline values and the “REM EEG spectral power, Beta1 power ([15.5; 20.5] Hz)” value ([1]; piromelatine 50 mg, n = 40) was 98.19 % of baseline values. The “REM EEG spectral power, Beta2 power ([20.5; 25.5] Hz)” value ([1]; piromelatine 50 mg, n = 40) was 99.93 % of baseline values, the “REM EEG spectral power, Beta3 power ([25.5; 32] Hz)” value ([1]; piromelatine 50 mg, n = 40) was 97.73 % of baseline values and the “REM EEG spectral power, Beta power ([15.5; 32] Hz)” value ([1]; piromelatine 50 mg, n = 40) was 99.55 % of baseline values. The “REM EEG spectral power, Delta power ([0.5; 4] Hz)” value ([1]; piromelatine 50 mg, n = 40) was 103.73 % of baseline values, the “REM EEG spectral power, Sigma power ([11.5; 15.5] Hz)” value ([1]; piromelatine 50 mg, n = 40) was 103.14 % of baseline values and the “REM EEG spectral power, Theta power ([4; 8] Hz)” value ([1]; piromelatine 50 mg, n = 40) was 105.03 % of baseline values. For the same compound, the “REM EEG spectral power, Total EEG power ([0.5; 32] Hz)” value ([1]; piromelatine 50 mg, n = 40) was 105.33 % of baseline values, the “REM EEG spectral power, Alpha power ([8; 13] Hz)” value ([1]; piromelatine 50 mg, n = 40, * significant difference (P < 0.05) compared to placebo) was 106.55* % of baseline values and the “effect on NREM low frequency band (0.5-1.5 Hz) (in words)” value [2] was “can increase the NREM low frequency band”.

From patent US20240238250A1, “METHOD OF USING PIROMELATINE FOR TREATING PARASOMNIAS ASSOCIATED WITH LOSS OF REM SLEEP ATONIA” (NEURIM PHARMACEUTICALS (1991) LTD., priority 2023, published 2024)
